Like-named read-outs stand apart in the source and are kept apart here.
Columns and labels:
[1] = test system: LS-174T human colon carcinoma cells; experiment: Growth inhibition of LS-174T cells (Example 4, Table 18); format: cell-based; settings: for inhibition at 10 µM / inhibition at 50 µM: Homo sapiens, LS174T; for growth inhibitory potency: LS-174T
Procedure: LS-174T human colon carcinoma cells were obtained from the National Cancer Institute, Division of Cancer Treatment, Bethesda, Md., and were grown in Eagle's minimum essential medium supplemented with 10% heat-inactivated fetal bovine serum, Eagle's minimum essential medium nonessential amino acids, 20 mM 4-(2-hydroxyethyl)-1-piperazineethanesulfonic acid, 2mM glutamine, and penicillin-streptomycin (Gibco). The medium was changed every 48 hours.
LS-174T cells were seeded at a density of 2×10^5 / 60 mm dish. […] At desired times, cell counts were performed in duplicate on a Coulter Counter after harvesting cells with gentle trypsinization.
The percentage growth inhibition values shown at 10
and 50 μM analogue concentrations were determined from
the dose-response curve experiments like those shown in
FIG. 1 and represent an average value obtained for each
analogue from two or more separate experiments. Sp-6-SET-

[2] = test system: HL-60 human leukemia cells; experiment: Growth inhibition of HL-60 leukemia cells (Example 3, Table 16); format: cell-based
Procedure: HL-60 leukemic cells were obtained from the American Type Culture Collection (Rockville, Md.) and were grown in suspension culture in RPMI 1640 supplemented with 10% heat-inactivated fetal bovine serum, streptomycin (500 μg/ml), penicillin (50 units/ml), and glutamine (1 mM) (Gibco, Grand Island, N.Y.).
Cell counts were performed at desired times on a Coulter Counter.
The IC50 values were determined from the dose-
represent an average value obtained for each analogue
from two or more separate experiments carried out from 3
days or 6 days. Initial cell number, 1 × 10^5 /dish.
Typical numbers of untreated control cells at day 3 and
viability in treated and control cells.

[3] = test system: LS-174T human colon carcinoma cells; experiment: Additive growth inhibition with 8-Cl-cAMP (Table 19); format: cell-based
Procedure: The medium was changed every 48 hours.
At desired times, cell counts were performed in duplicate on a Coulter Counter after harvesting cells with gentle trypsinization.
The analogues were added at 24

[4] = target: T1, RI, regulatory subunit of cAMP-dependent protein kinase type I (Oryctolagus cuniculus, UniProt G1TDN4); experiment: Binding affinity for RI (Table 14); settings: vs cyclophosphate
T1 construct: from tissue
Procedure: (§1) RI and RII are the regulatory subunits of cAMP-dependent protein
(§2) kinase type I and type II, respectively. Site A (Site 2) and Site B
(§3) (RI and RII): the affinities of analogues for Site A and Site B were
(§4) determined by the measurement of kinetic constants (inhibition constant,
(§5) Ki), and the values are expressed as the relative affinity Ki
(§6) (analogue), i.e., the ratio between the apparent inhibition constant for
(§7) cAMP and the analogue, as described in Ogreid et al., Eur. J. Biochem.

[5] = target: T2, RII, regulatory subunit of cAMP-dependent protein kinase type II (Bos taurus, UniProt P00515); experiment: Binding affinity for RII (Table 14); settings: vs cyclophosphate
T2 construct: from tissue
Procedure: as §1, §2, §3, §4, §5, §6, §7

[6] = target: T1, RI, regulatory subunit of cAMP-dependent protein kinase type I; settings: literature, cited from earlier work; for relative affinity Ki (cAMP)/Ki (analogue), RI Site A: Site A (Site 2); for relative affinity Ki (cAMP)/Ki (analogue), RI Site B: Site B (Site 1)
[7] = target: T2, RII, regulatory subunit of cAMP-dependent protein kinase type II; settings: literature, cited from earlier work; for relative affinity Ki (cAMP)/Ki (analogue), RII Site A: Site A (Site 2); for relative affinity Ki (cAMP)/Ki (analogue), RII Site B: Site B (Site 1)
[8] = test system: breast (MCF-7) and colon (LS-174T) cancer cell lines; experiment: Growth inhibition of breast and colon cancer cells (Table 1); format: cell-based, human; settings: for inhibition at 50 µM: Homo sapiens
Procedure: The compounds of the present invention were added using 100X concentrated stock solutions. At desired times, cell counts in duplicate were performed on a Coulter counter after harvesting the cells with gentle trypsinization. […] Cell counts were performed on each of three or more separate experiments, and the average values are expressed as percent growth inhibition as compared with untreated control cells. | ^a The values of percentage growth inhibition were determined from th | doseresponse curve experiments. Each value represents an average value an | range (in parentheses) obtained from three or more separate experiments. | The cell counts in duplicate were performed at day 3 and day 4 after two | treatments (day 0 and day 2) with analogs (seeding on day -1).

[9] = test system: HL-60; experiment: Growth inhibition of leukemic cells (Table 12); format: cell-based; settings: Homo sapiens
[10] = test system: Molt-4; experiment: Growth inhibition of leukemic cells (Table 12); format: cell-based, human; settings: Homo sapiens, MOLT-4; read-out: Inhibition of Growth IC50, Molt-4
[11] = test system: K-562; experiment: Growth inhibition of leukemic cells (Table 12); format: cell-based; settings: Homo sapiens, K562
[12] = test system: myc-K562; experiment: Growth inhibition of leukemic cells (Table 12); format: cell-based; settings: Homo sapiens
[13] = test system: four leukemic cell lines (HL-60, K-562, myc-K562, Molt-4); experiment: Growth inhibition of leukemic cell lines; format: cell-based, human
[14] = test system: breast and colon cancer lines (MCF-7, T-47D, ZR-75-1, MCF-7ras, MDA-MB-231, BT-20, HBL-100, LS-174T, WiDr, HT-29); experiment: Growth inhibition of breast and colon cancer lines (FIG. 1); format: cell-based, human; settings: 0.1 mM, alone
[15] = Homo sapiens, HL-60, read-out: growth inhibition
[16] = 72 h, 50 μM, day 3, average (range), read-out: % Growth Inhibition, Day 3
[17] = 96 h, 50 μM, day 4, average (range), read-out: % Growth Inhibition, Day 4
[18] = 50 micromolar, read-out: growth inhibition

T2 sequence (P00515 whole entry): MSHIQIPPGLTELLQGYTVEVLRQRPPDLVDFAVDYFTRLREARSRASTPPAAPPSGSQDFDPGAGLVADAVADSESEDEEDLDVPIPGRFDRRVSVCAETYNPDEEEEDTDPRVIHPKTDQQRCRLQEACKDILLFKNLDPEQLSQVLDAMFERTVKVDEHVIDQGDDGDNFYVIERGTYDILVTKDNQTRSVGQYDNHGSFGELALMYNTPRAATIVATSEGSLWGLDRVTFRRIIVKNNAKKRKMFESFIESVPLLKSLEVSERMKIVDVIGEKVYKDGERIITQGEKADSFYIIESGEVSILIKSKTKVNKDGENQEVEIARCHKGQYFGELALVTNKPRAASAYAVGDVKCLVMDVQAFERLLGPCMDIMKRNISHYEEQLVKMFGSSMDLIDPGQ
T1 sequence (G1TDN4 1-381): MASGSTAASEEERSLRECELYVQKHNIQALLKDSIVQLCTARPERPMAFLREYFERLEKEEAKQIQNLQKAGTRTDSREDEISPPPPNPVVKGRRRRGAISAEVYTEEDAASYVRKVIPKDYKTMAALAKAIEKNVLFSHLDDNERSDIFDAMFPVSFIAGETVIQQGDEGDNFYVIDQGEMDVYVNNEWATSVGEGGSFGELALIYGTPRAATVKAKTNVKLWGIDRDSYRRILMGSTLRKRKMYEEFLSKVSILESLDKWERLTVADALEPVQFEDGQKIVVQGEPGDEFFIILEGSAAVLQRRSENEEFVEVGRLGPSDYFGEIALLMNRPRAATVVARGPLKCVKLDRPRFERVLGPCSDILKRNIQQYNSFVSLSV

## CCSc1ncnc2c1ncn2[C@@H]1O[C@@H]2CO[P@](O)(=S)O[C@H]2[C@H]1O [Sp-6-SET-cPMPS, Sp-6-ethylthiopurine-3':5'-monophosphorothioate]
[1]
  inhibition at 10 µM: 25%
  inhibition at 50 µM: 50%
  growth inhibitory potency: moderate potency

## Nc1ncnc2c1ncn2[C@@H]1O[C@@H]2CO[P@@](O)(=S)O[C@H]2[C@H]1O [Rp-cAMPS]
[2]; [15]
  inhibition at 20 µM: < 5%
[1]
  inhibition at 10 µM: 15%
  inhibition at 50 µM: 35%
  growth inhibitory potency: moderate potency
[3]; Homo sapiens, LS174T, 96 h, 50 μM, 4 days
  inhibition at 50 µM: 35%
[3]; with 8-Cl-cAMP
  effect on growth-inhibitory effect of 8-Cl-cAMP: additive effect

## Nc1ncnc2c1nc(Br)n2[C@@H]1O[C@@H]2CO[P@](O)(=S)O[C@H]2[C@H]1O [Sp-8-Br-cAMPS]
[4]
  decrease in affinity for Site A of RI vs corresponding cyclophosphate: 7 fold
  decrease in affinity for Site B of RI vs corresponding cyclophosphate: 19 fold
[5]
  decrease in affinity for Site A of RII vs corresponding cyclophosphate: 37 fold
  decrease in affinity for Site B of RII vs corresponding cyclophosphate: 3.1 fold
[2]; Homo sapiens, HL-60, 72 h, read-out: Growth inhibition (IC50), Day 3
  IC50: 28 µM
[2]; Homo sapiens, HL-60, 144 h, read-out: Growth inhibition (IC50), Day 6
  IC50: 3 µM
[2]; [15]
  inhibition at 20 µM: 47%
[2]; IC50, day 6
  fold more potent than 8-Br-cAMP: 6 fold
[1]
  inhibition at 10 µM: 40%
  inhibition at 50 µM: 60%
  growth inhibitory potency: greatest inhibition of cell growth
[6]
  relative affinity Ki (cAMP)/Ki (analogue), RI Site A: 0.19
  relative affinity Ki (cAMP)/Ki (analogue), RI Site B: 0.054
[7]
  relative affinity Ki (cAMP)/Ki (analogue), RII Site A: 0.003
  relative affinity Ki (cAMP)/Ki (analogue), RII Site B: 2.2

## O=P1(O)OC[C@H]2O[C@@H](n3c(Sc4ccc(Cl)cc4)nc4c(N5CCCCC5)ncnc43)[C@H](O)[C@@H]2O1 [6-piperidino-8-p-chlorophenylthio-cAMP]
[8]; [16]
  inhibition at 50 µM: 33%
[8]; [17]
  inhibition at 50 µM: 25%

## O=C(Nc1ccccc1)Nc1ncnc2c1ncn2[C@@H]1O[C@@H]2COP(=O)(O)O[C@H]2[C@H]1O [N^6 -phenylcarbamoyl-cAMP]
[8]; [16]
  inhibition at 50 µM: 10%
[8]; [17]
  inhibition at 50 µM: 10%

## Nc1ncnc2c1nc(Br)n2[C@@H]1O[C@@H]2COP(=O)(O)O[C@H]2[C@H]1O [8-Br-cAMP, 8-bromo-adenosine 3': 5'-monophosphate]
[8]; [16]
  inhibition at 50 µM: 41%
[8]; [17]
  inhibition at 50 µM: 40%
[8]; [18]
  inhibition at 50 µM: 40 to 75%
[9]
  IC50: 50 µM
[10]
  IC50: 100 µM
[11]
  IC50: 100 µM
[12]
  IC50: 100 µM
[2]; Homo sapiens, HL-60, 72 h; read-out: Growth inhibition (IC50), Day 3
  IC50: 100 µM
[2]; Homo sapiens, HL-60, 144 h; read-out: Growth inhibition (IC50), Day 6
  IC50: 18 µM
[2]; Homo sapiens, HL-60; 20 μM; read-out: growth inhibition
  inhibition at 20 µM: < 5%
[13]; leukemic cell lines
  times less potent than 8-Cl-cAMP: 5-20 times
[6]
  relative affinity Ki (cAMP)/Ki (analogue), RI Site A: 1.30
  relative affinity Ki (cAMP)/Ki (analogue), RI Site B: 1.0
[7]
  relative affinity Ki (cAMP)/Ki (analogue), RII Site A: 0.11
  relative affinity Ki (cAMP)/Ki (analogue), RII Site B: 6.8

## Cn1c(=O)c2[nH]cnc2n(C)c1=O [theophylline, reference compound]
[14]
  growth inhibitory effect: little or no growth inhibitory effect
[13]; 0.1 mM, alone
  growth inhibitory effect: little or no growth inhibitory effect

## Nc1ncnc2c1nc(Sc1ccc(Cl)cc1)n2[C@@H]1O[C@@H]2COP(=O)(O)O[C@H]2[C@H]1O [8-p-chlorophenylthio-cAMP]
[8]; [16]
  inhibition at 50 µM: 23%
[8]; [17]
  inhibition at 50 µM: 24%

## Nc1ncnc2c1nc(I)n2[C@@H]1O[C@@H]2COP(=O)(O)O[C@H]2[C@H]1O [8-iodo-cAMP]
[8]; [16]
  inhibition at 50 µM: 26%
[8]; [17]
  inhibition at 50 µM: 25%

## Nc1nc(Cl)nc2c1ncn2[C@@H]1O[C@@H]2CO[P@](O)(=S)O[C@H]2[C@H]1O [Sp-2-Cl-cAMPS, Sp-2-Chloroadenosine-3':5'-monophosphorothioate]
[1]
  inhibition at 10 µM: 10%
  inhibition at 50 µM: 25%
  growth inhibitory potency: least potency

## O=P1(O)OC[C@H]2O[C@@H](n3c(Sc4ccc(Cl)cc4)nc4c(Nc5ccccc5)ncnc43)[C@H](O)[C@@H]2O1 [N^6-phenyl-8-p-chlorophenylthio-cAMP]
[8]; 50 micromolar
  growth inhibition: most potent growth inhibition among the C-6,-8 disubstituted analogues
[8]; [16]
  inhibition at 50 µM: 60%
[8]; [17]
  inhibition at 50 µM: 47%

## Nc1ncnc2c1ncn2[C@@H]1O[C@@H]2CO[P@](O)(=S)O[C@H]2[C@H]1O [Sp-cAMPS]
[2]; [15]
  inhibition at 20 µM: < 5%
[1]
  inhibition at 10 µM: 7%
  inhibition at 50 µM: 15%
  growth inhibitory potency: least potency

## Nc1ncnc2c1nc(NCCO)n2[C@@H]1O[C@@H]2COP(=O)(O)O[C@H]2[C@H]1O [8-β-hydroxyethylamino-cAMP]
[8]; [16]
  inhibition at 50 µM: 15%
[8]; [17]
  inhibition at 50 µM: 20%
[8]; [18]
  inhibition at 50 µM: ≤ 20%

## CCCCNc1ncnc2c1nc(Sc1ccc(Cl)cc1)n2[C@@H]1O[C@@H]2COP(=O)(O)O[C@H]2[C@H]1O [N^6-n-butyl-8-p-chlorophenylthio-cAMP]
[8]; [16]
  inhibition at 50 µM: 15%
[8]; [17]
  inhibition at 50 µM: 22%

## CCN(CC)c1ncnc2c1nc(Sc1ccc(Cl)cc1)n2[C@@H]1O[C@@H]2COP(=O)(O)O[C@H]2[C@H]1O [N^6,N ^6-diethyl-8-p-chlorophenylthio-cAMP]
[8]; [16]
  inhibition at 50 µM: 43%
[8]; [17]
  inhibition at 50 µM: 45%

## CN(C)c1nc2c(N)ncnc2n1[C@@H]1O[C@@H]2COP(=O)(O)O[C@H]2[C@H]1O [8-N,N-dimethylamino-cAMP]
[8]; [16]
  inhibition at 50 µM: 0%
[8]; [17]
  inhibition at 50 µM: 0%
[8]; [18]
  inhibition at 50 µM: ≤ 20%

## O=P1(O)OC[C@H]2O[C@@H](n3c(SCc4ccccc4)nc4c(NCc5ccccc5)ncnc43)[C@H](O)[C@@H]2O1 [N^6-benzyl-8-benzylthio-cAMP]
[8]; [16]
  inhibition at 50 µM: 25%
[8]; [17]
  inhibition at 50 µM: 23%

## CCOC(=O)Nc1ncnc2c1ncn2[C@@H]1O[C@@H]2COP(=O)(O)O[C@H]2[C@H]1O [N^6 -ethoxycarbonyl-cAMP]
[8]; [16]
  inhibition at 50 µM: 32%
[8]; [17]
  inhibition at 50 µM: 40%
[8]; [18]
  inhibition at 50 µM: 30 to 70%
